We go through 14 compounds from patent publication US20240116951A1, “HETEROCYCLIC COMPOUNDS AND USES THEREOF” (Kumquat Biosciences Inc., priority 2022, published 2024).

Common to all, as to assay type: binding
In test [1] the target is T1, KRAS G12S (Homo sapiens, UniProt P01116, G12S).
T1 construct: made in house; host or cells: E. coli, e.g. BL21 (DE3)
As to the kind of experiment: HTRF assay of K-Ras G12S interaction with SOS1 (PPI-HTRF). The following applies: 5 nM KRAS G12S, read-out: PPI-HTRF-5 nM KRAS G12S. From the text:
(§1) This assay can be also used to assess a selective inhibition or reduction of signaling output of a mutant Ras protein relative to a wildtype, or relative to a different mutant Ras protein. For example, the equilibrium interaction of wildtype Kras or K-Ras mutant (e.g., wildtype or a mutant thereof including those mentioned in Example 4) with SOS1 (e.g., hSOS1) can be assessed as a proxy or an indication for a subject compound's ability to bind and inhibit Ras protein. HTRF assay detects from (i) a fluorescence resonance energy transfer (FRET) donor (e.g., antiGST-Europium) that is bound to GST-tagged K-Ras mutant to (ii) a FRET acceptor (e.g., anti-6His-XL665) bound to a His-tagged hSOS1.
(§2) The assay buffer can contain ˜5 mM HEPES pH 7.4, ˜150 mM NaCl, ˜1 mM DTT, 0.05% BSA and 0.0025% (v/v) Igepal. A Ras working solution is prepared in an assay buffer containing typically a suitable amount of the protein construct (e.g., GST-tagged K-Ras mutant) and the FRET donor (e.g., antiGST-Eu(K) from Cisbio, France). A SOS1 working solution is prepared in an assay buffer containing suitable amount of the protein construct (e.g., His-hSOS1) and the FRET acceptor (e.g., anti-6His-XL665 from Cisbio, France). A suitable amount of the protein construct will depend on the range of activity or range of IC50 values being detected or under investigation. For detecting IC50 within a range of 500 nM, the protein constructs of the same range of molarity can be utilized. […] A fixed volume of DMSO with or without test compound is transferred into a 384-well plate. Ras working solution is added to all wells of the test plate. SOS1 working solution is added to all wells except for those that are subsequently filled the inhibitor control solution. Upon incubation for about 10 minutes or longer, the fluorescence is measured with a M1000Pro plate reader (Tecan) using HTRF detection (excitation 337 nm, emission 1: 620 nm, emission 2: 665 nm). Compounds are tested in duplicates at different concentrations (for example, 10 μM, 2.5 μM, 0.63 μM, 0.16 μM, 0.04 μM, 0.01 μM test compound). The ratiometric data (i.e., emission 2 divided by emission 1) is used to calculate IC50 values against Ras using GraphPad Prism (GraphPad software). Following this general procedure, samples were tested with or without a subject compound disclosed herein including compounds exemplified in Table 1 to assess their abilities to inhibit a mutant K-Ras relative to another mutant K-Ras or wildtype K-Ras. Signaling output measured in terms of IC50 values can be obtained, a ratio of IC50 against one mutant relative to another mutant can be calculated. For instance, a selective reduction of K-Ras G12D signaling output can be evidenced by a ratio greater than one. In particular, a selective reduction of K-Ras G12D signaling relative to K-Ras WT signaling is evidenced as the ratio of IC50 (against K-Ras WT) to IC50 (against K-Ras G12D) is greater than 1.
A general note: In TR-FRET formats the signal depends on donor and acceptor labels being close together.

Test [2] concerns the target T2, KRAS G12D (Homo sapiens, UniProt P01116, G12D).
T2 construct: made in house; host or cells: E. coli, e.g. BL21 (DE3)
As to the kind of experiment: HTRF assay of K-Ras G12D interaction with SOS1 (PPI-HTRF). The following applies: HTRF, 5 nM KRAS G12D; read-out: PPI-HTRF-5 nM KRAS G12D.
From the text: as §1, §2

Test [3] has as its target T3, KRAS WT (Homo sapiens, UniProt P01116).
T3 construct: made in house; host or cells: E. coli, e.g. BL21 (DE3)
Description: HTRF assay of wildtype K-Ras interaction with SOS1 (PPI-HTRF). The following applies: HTRF, 5 nM KRAS WT; read-out: PPI-HTRF-5 nM KRAS WT.
From the text: as §1, §2

The structures appear in SMILES notation. Some results are limits rather than exact numbers.

T3 sequence (P01116 1-188 isoform P01116-2): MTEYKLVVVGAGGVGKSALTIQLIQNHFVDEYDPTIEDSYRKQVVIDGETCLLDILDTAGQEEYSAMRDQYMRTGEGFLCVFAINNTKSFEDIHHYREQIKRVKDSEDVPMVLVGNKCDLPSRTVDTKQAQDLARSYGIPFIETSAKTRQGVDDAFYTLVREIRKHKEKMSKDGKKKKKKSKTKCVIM
T1 sequence (P01116 1-188 isoform P01116-2 G12S): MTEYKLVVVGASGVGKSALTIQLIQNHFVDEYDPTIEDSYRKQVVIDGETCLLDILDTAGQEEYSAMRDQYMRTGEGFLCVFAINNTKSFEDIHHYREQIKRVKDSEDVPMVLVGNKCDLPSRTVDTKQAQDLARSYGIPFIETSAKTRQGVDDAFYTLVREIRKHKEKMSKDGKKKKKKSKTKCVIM
T2 sequence (P01116 1-188 isoform P01116-2 G12D): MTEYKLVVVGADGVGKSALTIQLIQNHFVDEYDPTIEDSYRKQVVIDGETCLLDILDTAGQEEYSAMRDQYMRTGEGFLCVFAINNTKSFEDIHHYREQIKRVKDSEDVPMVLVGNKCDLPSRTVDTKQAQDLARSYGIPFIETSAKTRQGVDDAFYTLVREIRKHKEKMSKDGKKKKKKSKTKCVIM

In the case of `N#Cc1c(N)sc2c(F)ccc(-c3c(Cl)cc4c(N5CCC6(CCN6C(=O)n6nc(C7CC7)nc6Cl)C5)nc(OC[C@@]56CCCN5C[C@H](F)C6)nc4c3F)c12` (stereo partly drawn) [Compound 288, 2-amino-4-(6-chloro-4-(1-(5-chloro-3-cyclopropyl-1H-1,2,4-triazole-1-carbonyl)-1,6-diazaspiro[3.4]octan-6-yl)-8-fluoro-2-(((2R,7aS)-2-fluorotetrahydro-1H-pyrrolizin-7a(5H)-yl)methoxy)quinazolin-7-yl)-7-fluorobenzo[b]thiophene-3-carbonitrile], the IC50 in test [1], in test [2] and in test [3] was under 5 µM in each case.
For `Nc1nc2c(-c3c(Cl)cc4c(N5CCCC6(CCN6)CC5)nc(OC[C@@]56CCCN5C[C@H](F)C6)nc4c3F)ccc(F)c2s1` (stereo partly drawn) [Compound 276, 4-(6-chloro-8-fluoro-2-(((2R,7aS)-2-fluorotetrahydro-1H-pyrrolizin-7a(5H)-yl)methoxy)-4-(1,7-diazaspiro[3.6]decan-7-yl)quinazolin-7-yl)-7-fluorobenzo[d]thiazol-2-amine], the IC50 in test [1], in test [2] and in test [3] was under 5 µM each time.
On to `N#Cc1c(N)sc2c(F)ccc(-c3c(Cl)cc4c(N5CC[C@@]6(CCN6C(=O)n6cnc(Cl)n6)C5)nc(OC[C@@]56CCCN5C[C@H](F)C6)nc4c3F)c12` (atropisomer, axis not shown; (aS)) [Compound 225, 2-amino-4-((R)-6-chloro-4-((R)-1-(3-chloro-1H-1,2,4-triazole-1-carbonyl)-1,6-diazaspiro[3.4]octan-6-yl)-8-fluoro-2-(((2R,7aS)-2-fluorotetrahydro-1H-pyrrolizin-7a(5H)-yl)methoxy)quinazolin-7-yl)-7-fluorobenzo[b]thiophene-3-carbonitrile], for which the IC50 in test [1], in test [2] and in test [3] was under 5 µM each time.
On to `C=CC(=O)N1CC[C@@]12CCN(c1nc(OC[C@@]34CCCN3C[C@H](F)C4)nc3c(F)c(-c4ccc(F)c5sc(N)c(C#N)c45)c(Cl)cc13)C2` [Compound 291], for which the IC50 in test [1], in test [2] and in test [3] was under 5 µM in each case.
For `N#Cc1c(N)sc2c(F)ccc(-c3c(Cl)cc4c(N5CC[C@@]6(CCN6C(=O)n6cnc(CCl)n6)C5)nc(OC[C@@]56CCCN5C[C@H](F)C6)nc4c3F)c12` [Compound 322, 2-amino-4-(6-chloro-4-((R)-1-(3-(chloromethyl)-1H-1,2,4-triazole-1-carbonyl)-1,6-diazaspiro[3.4]octan-6-yl)-8-fluoro-2-(((2R,7aS)-2-fluorotetrahydro-1H-pyrrolizin-7a(5H)-yl)methoxy)quinazolin-7-yl)-7-fluorobenzo[b]thiophene-3-carbonitrile], the IC50 in test [1], in test [2] and in test [3] was under 5 µM throughout.
Regarding `C[C@H](Oc1nc(N2CCCC3(CCN3)C2)c2cc(Cl)c(-c3ccc(F)c4sc(N)c(C#N)c34)c(F)c2n1)[C@@H]1CCCN1C` (stereo partly drawn) [Compound 210, 2-amino-4-(6-chloro-8-fluoro-2-((S)-1-((S)-1-methylpyrrolidin-2-yl)ethoxy)-4-(1,6-diazaspiro[3.5]nonan-6-yl)quinazolin-7-yl)-7-fluorobenzo[b]thiophene-3-carbonitrile], the IC50 in test [1], in test [2] and in test [3] was under 5 µM throughout.
Turning to `N#Cc1c(N)sc2c(F)ccc(-c3c(Cl)cc4c(N5CCC6(CC5)CCN6C(=O)[C@@H]5N[C@H]5C5CC5)nc(OC[C@@]56CCCN5C[C@H](F)C6)nc4c3F)c12` [Compound 262, 2-amino-4-(6-chloro-4-(1-((2R,3S)-3-cyclopropylaziridine-2-carbonyl)-1,7-diazaspiro[3.5]nonan-7-yl)-8-fluoro-2-(((2R,7aS)-2-fluorotetrahydro-1H-pyrrolizin-7a(5H)-yl)methoxy)quinazolin-7-yl)-7-fluorobenzo[b]thiophene-3-carbonitrile], the IC50 in test [1], in test [2] and in test [3] was under 5 µM throughout.
With `Nc1nc2c(-c3c(Cl)cc4c(N5CCCC6(CCCN6C(=O)n6cncn6)C5)nc(OC[C@@]56CCCN5C[C@H](F)C6)nc4c3F)ccc(F)c2s1` (stereo partly drawn) [Compound 211, (7-(7-(2-amino-7-fluorobenzo[d]thiazol-4-yl)-6-chloro-8-fluoro-2-(((2R,7aS)-2-fluorotetrahydro-1H-pyrrolizin-7a(5H)-yl)methoxy)quinazolin-4-yl)-1,7-diazaspiro[4.5]decan-1-yl)(1H-1,2,4-triazol-1-yl)methanone], the IC50 in test [1], in test [2] and in test [3] was under 5 µM each time.
For the compound `Cc1ncn(C(=O)N2CC[C@@]23CCN(c2nc(OC[C@@]45CCCN4C[C@H](F)C5)nc4c(F)c(-c5ccc(F)c6sc(N)c(C#N)c56)c(Cl)cc24)C3)n1` [Compound 339, 2-amino-4-(6-chloro-8-fluoro-2-(((2R,7aS)-2-fluorotetrahydro-1H-pyrrolizin-7a(5H)-yl)methoxy)-4-((R)-1-(3-methyl-1H-1,2,4-triazole-1-carbonyl)-1,6-diazaspiro[3.4]octan-6-yl)quinazolin-7-yl)-7-fluorobenzo[b]thiophene-3-carbonitrile], the IC50 in test [1] is under 5 µM.
On the same count and under the same terms, the value for `Cc1ncn(C(=O)N2CC[C@]23CCN(c2nc(OC[C@@]45CCCN4C[C@H](F)C5)nc4c(F)c(-c5ccc(F)c6sc(N)c(C#N)c56)c(Cl)cc24)C3)n1` [Compound 250, 2-amino-4-(6-chloro-8-fluoro-2-(((2R,7aS)-2-fluorotetrahydro-1H-pyrrolizin-7a(5H)-yl)methoxy)-4-((S)-1-(3-methyl-1H-1,2,4-triazole-1-carbonyl)-1,6-diazaspiro[3.4]octan-6-yl)quinazolin-7-yl)-7-fluorobenzo[b]thiophene-3-carbonitrile] was under 5 µM.
In the case of `Nc1nc2c(-c3c(Cl)cc4c(N5CC6(CCCCN6)C5)nc(OCC56CCCN5C[C@H](F)C6)nc4c3F)ccc(F)c2s1` (stereo partly drawn) [Compound 220, 4-(6-chloro-8-fluoro-2-(((2R)-2-fluorotetrahydro-1H-pyrrolizin-7a(5H)-yl)methoxy)-4-(2,5-diazaspiro[3.5]nonan-2-yl)quinazolin-7-yl)-7-fluorobenzo[d]thiazol-2-amine], the IC50 in test [2] and in test [3] was under 5 µM each time.
On to `Nc1nc2c(-c3c(Cl)cc4c(N5CC6(CNCCN6)C5)nc(OC[C@@]56CCCN5C[C@H](F)C6)nc4c3F)ccc(F)c2s1` [Compound 251, 4-(6-chloro-8-fluoro-2-(((2R,7aS)-2-fluorotetrahydro-1H-pyrrolizin-7a(5H)-yl)methoxy)-4-(2,5,8-triazaspiro[3.5]nonan-2-yl)quinazolin-7-yl)-7-fluorobenzo[d]thiazol-2-amine], for which the IC50 was over 5 µM in test [1] and under 5 µM in test [2].
As to `Nc1nc2c(-c3c(Cl)cc4c(N5CCCC6(CCN6)C5)nc(OC[C@@]56CCCN5C[C@H](F)C6)nc4c3F)ccc(F)c2s1` (stereo partly drawn) [Compound 209, 4-(6-chloro-8-fluoro-2-(((2R,7aS)-2-fluorotetrahydro-1H-pyrrolizin-7a(5H)-yl)methoxy)-4-(1,6-diazaspiro[3.5]nonan-6-yl)quinazolin-7-yl)-7-fluorobenzo[d]thiazol-2-amine], the IC50 in test [1] was under 5 µM.
With `N#Cc1c(N)sc2c(F)ccc(-c3c(Cl)cc4c(N5CC6(CCN6C(=O)n6cncn6)CC5COC(F)F)nc(OC[C@@]56CCCN5C[C@H](F)C6)nc4c3F)c12` (stereo partly drawn) [Compound 348, 2-amino-4-(6-chloro-4-(7-((difluoromethoxy)methyl)-1-(1H-1,2,4-triazole-1-carbonyl)-1,6-diazaspiro[3.4]octan-6-yl)-8-fluoro-2-(((2R,7aS)-2-fluorotetrahydro-1H-pyrrolizin-7a(5H)-yl)methoxy)quinazolin-7-yl)-7-fluorobenzo[b]thiophene-3-carbonitrile], the IC50 in test [1] is under 5 µM.
